Source: patent publication US20260355330A1, “CELL PENETRATING PEPTIDES AND USES THEREOF” (VECTIOPEP OÜ, priority 2022, published 2026)

Legend:
[1] = test system: spleen cell subtypes (T cells, macrophages, dendritic cells, rest of the lymphocytes); assay: Immunophenotyping the spleen cell subtypes post-transfection of mRNA with NF55 in vivo; parameters: species or system mice; settings: in words; luciferase mRNA 30 μg, CR2, i.v., 16 h post-injection
Method: FIG. 6: Reporter levels detected from spleen cells subtypes collected from NF55/mRNA treated mice. Reporter protein levels were evaluated from the sorted splenocytes: T cells, Macrophages, Dendritic cells and the rest of the lymphocytes. Results are shown as the fold change compared to untreated mice.
To analyse the cell subtypes that were transfected with the CPP, 30 μg of luciferase-encoding mRNA was complexed with the CPP at CR2 in water and injected i.v. 16 h post-injection, the spleens were collected into ice-cold dissociation buffer (1×PBS without Ca^2+ and Mg^2+ supplemented with 2 mM EDTA). Following gentle mechanical dissociation by grinding, splenic cells were strained with 100 μm cell strainer and centrifuged for 5 min at +4 °C, 300×g. A 2-minute incubation with 1 ml of RBC lysis buffer ACK (Thermo) was used for the red blood cell lysis. Flow cytometry buffer (dissociation buffer supplemented with 0.5% (w/v) BSA) was added, cells were centrifuged for 5 min at +4 °C, 300×g and counted. […]
In order to determine to which types of spleen cells mRNA were transfected in vivo, cells collected from the spleens of transfected animals were sorted according to their subtype and the reporter expression measured. mRNA encoding luciferase (mRNA (luc)) was used as a reporter model.

[2] = test system: CHO-K1 cells; assay: Comparison of reporter levels in cells post-transfection of pDNA or mRNA delivered by CPPs; format: cell-based; settings: in words; mRNA cargo; FIG. 2
Method: FIG. 2: Comparison of reporter levels in cells post-transfection of pDNA or mRNA delivered by CPPs (P14, NF55 and NF71; relative light units normalised to total protein in the cell lysate (RLU/mg)). Naked mRNA and untreated cells (UT) were used as controls.
Adherent CHO-K1 cells were grown in Dulbecco's Modified Eagle's Medium (DMEM), which were supplemented with 0.1 mM non-essential amino acids, 1.0 mM sodium pyruvate, 100 U/ml penicillin, and […]. For complete media, 10% (final) fetal bovine serum (FBS) was added. Cells were maintained in a humidified incubator at 37 °C, 5% CO2. Cell viability and confluence was assessed daily and the cell density was reduced regularly. For cell counting, we used the CytoSMART cell counter accompanied by 0.4% trypan blue staining prior measurement. The multi-well plates with cell cultures used for experiments were incubated in a humidified incubator at 37 °C, 5% CO2.
For in vitro experiments 0.1 μg of nucleic acid (plasmid DNA (pDNA) or mRNA) was used per 96-well plate well. For CPP/NA complex formation, the diluted NA was mixed with CPP in water. Complexes were formed based on the theoretical charge ratio (CR) of positive charges from the peptide in excess to the negative charges from nucleic acid backbone, at charge ratio 3:1 with peptide in excess. […]
For reporter luminescence (expressed from firefly luciferase encoding mRNA or plasmid pDNA) assessment in adherent cell culture, 10,000 cells per 96-well plate well were seeded in 100 μl of media one day prior to transfection. […]
24 hours post-transfection, the media was aspirated, cells were washed with 1×PBS, and 30 μl of lysis buffer (0.1% Triton X100 in 1×PBS) was added. […] From the lysate, 20 μl was transferred to a black frame white well 96-well plate for luminescence measurement after addition of substrate luciferin (PerkinElmer) in buffer. The luminescence signal was detected with GloMax® 96 microplate luminometer equipped with GloMax® 1.9.2 software (Promega). […]

CCCCCCCCCCCCCCCCCC(=O)N[C@@H](C)C(=O)NCC(=O)N[C@@H](Cc1ccc(O)cc1)C(=O)N[C@@H](CC(C)C)C(=O)N[C@@H](CC(C)C)C(=O)NCC(=O)NCCC[C@H](N)C(=O)N[C@H](C(=O)N[C@@H](CC(N)=O)C(=O)N[C@@H](CC(C)C)C(=O)N[C@@H](CCCCN)C(=O)N[C@@H](C)C(=O)N[C@@H](CC(C)C)C(=O)N[C@@H](C)C(=O)N[C@@H](C)C(=O)N[C@@H](CC(C)C)C(=O)N[C@@H](C)C(=O)N[C@@H](CCCCN)C(=O)N[C@@H](C)C(=O)N[C@H](C(=O)N[C@@H](CC(C)C)C(N)=O)[C@@H](C)CC)[C@@H](C)CC [NF55]
Reporter signal in spleen cell subtypes [1]: the majority of the reporter signal arose from the dendritic cells (DCs) | Efficiency of mRNA transfection (parallel pDNA/mRNA comparison) [2]: very efficient for mRNA transfection
